Results from PMC9012672 (Clinical cancer research : an official journal of the …, 2022).

How the values were obtained:
CYP3A4 = CYP3A4 (Homo sapiens, UniProt P08684); test: Metabolism of sotorasib; assay type: in vitro ADME
patients with NSCLC = test: CodeBreaK 100; assay type: in vivo
[1] = CodeBreaK 100 multiple-dose PK; assay type: in vivo, human; settings: for AUC(0-t) / Cmax / Tmax / half-life: human, plasma, po
Beagle dogs = settings: 3-month dog study; cited from earlier work
[2] = Clinical pharmacology: elimination, food effect, covariate effects on exposure; settings: human, in vivo
rats = test: 3-month rat toxicology study; assay type: in vivo
[3] = 204 patients with NSCLC, 960 mg daily

Chain of CYP3A4 (P08684 whole entry): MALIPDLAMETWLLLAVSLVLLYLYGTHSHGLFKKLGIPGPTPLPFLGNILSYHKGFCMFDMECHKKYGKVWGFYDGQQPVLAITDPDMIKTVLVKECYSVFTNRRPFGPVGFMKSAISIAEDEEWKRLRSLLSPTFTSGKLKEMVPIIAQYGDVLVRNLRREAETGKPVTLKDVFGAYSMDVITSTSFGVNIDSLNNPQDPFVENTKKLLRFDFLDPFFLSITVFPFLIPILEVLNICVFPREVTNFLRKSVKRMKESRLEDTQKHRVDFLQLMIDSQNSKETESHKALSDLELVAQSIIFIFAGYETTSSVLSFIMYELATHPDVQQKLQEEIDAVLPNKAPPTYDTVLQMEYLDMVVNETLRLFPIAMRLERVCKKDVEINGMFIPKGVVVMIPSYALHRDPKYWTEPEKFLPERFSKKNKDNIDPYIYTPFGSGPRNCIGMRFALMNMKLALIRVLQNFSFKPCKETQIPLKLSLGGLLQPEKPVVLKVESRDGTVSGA

With C=CC(=O)N1CCN(c2nc(=O)n(-c3c(C)ccnc3C(C)C)c3nc(-c4c(O)cccc4F)c(F)cc23)[C@@H](C)C1 [sotorasib] the Main metabolising enzyme (CYP3A4) was “primarily metabolized by CYP3A4”, the “Adverse event: abdominal pain” value (patients with NSCLC; [3]) was 15% and the “Adverse event: constipation” value (patients with NSCLC; [3]) was 16%. The “Adverse event: cough” value (patients with NSCLC; [3]) was 20%, the “Adverse event: decreased appetite” value (patients with NSCLC; [3]) was 13% and the “Adverse event: diarrhea” value (patients with NSCLC; [3]) was 42%. The “Adverse event: dyspnea” value (patients with NSCLC; [3]) was 16%, the “Adverse event: edema” value (patients with NSCLC; [3]) was 15% and the “Adverse event: musculoskeletal pain” value (patients with NSCLC; [3]) was 35%. For the same compound, the “Adverse event: pneumonia” value (patients with NSCLC; [3]) was 12%, the “Adverse event: rash” value (patients with NSCLC; [3]) was 12% and the “Adverse event: vomiting” value (patients with NSCLC; [3]) was 17%. The “Discontinuation due to hepatotoxicity” value (patients with NSCLC; [3]) was 4.9%, the “Permanent discontinuation due to an AE” value (patients with NSCLC; [3]) was 9% and the “Serious AE: diarrhea” value (patients with NSCLC; [3]) was 2%. For the same compound, the “Serious AE: hepatotoxicity” value (patients with NSCLC; [3]) was 3.4%, the “Serious AE: pneumonia” value (patients with NSCLC; [3]) was 8% and the “Serious AEs, patients” value (patients with NSCLC; [3]) was 50%. For the same compound, the “Adverse event: hepatotoxicity” value (patients with NSCLC; 204 patients with NSCLC, 960 mg daily, grouped term) was 25%, the “Resolution of hepatotoxicity after dose reduction or interruption” value (patients with NSCLC; cases with dose reduction or interruption) was 91% and the “Patients with hepatotoxicity requiring dose reduction or interruption” value (patients with NSCLC; of the 50 patients with an event of hepatotoxicity (n=23)) was 46%. The “Patients with hepatotoxicity treated with systemic corticosteroids” value (patients with NSCLC; of the 357 patients treated with 960 mg daily) was 5%, the “Most common adverse reactions (≥20%)” value (patients with NSCLC; patients with NSCLC in CodeBreaK 100) was “diarrhea, musculoskeletal pain, nausea, fatigue, hepatotoxicity, and cough” and the “Hepatotoxicity events that were severe (Grade 3 or 4)” value (patients with NSCLC; primary safety population) was 12%. The Renal toxicity events (patients with NSCLC; primary safety population) was “rare, mild to moderate, and did not require dose reduction or discontinuation”, the Interstitial lung disease/pneumonitis (patients with NSCLC; primary safety population, three patients, one fatal case) was 1.5% and the “Systemic exposures (AUC0–24h and Cmax) across dose levels” value ([1]; daily doses ranging from 180 mg to 960 mg) was “similar”. For the same compound, the AUC(0-t) ([1]; 180 mg) was 31700 ng·h/mL, the Cmax ([1]; 180 mg) was 6440 ng/mL and the Tmax ([1]; 180 mg) was 0.73 h. For the same compound, the half-life ([1]; 180 mg) was 5.13 h, the AUC(0-t) ([1]; 360 mg) was 38900 ng·h/mL and the Cmax ([1]; 360 mg) was 6310 ng/mL. For the same compound, the half-life ([1]; 360 mg) was 5.53 h, the AUC(0-t) ([1]; 720 mg) was 42100 ng·h/mL and the Cmax ([1]; 720 mg) was 5450 ng/mL. The Tmax ([1]; 720 mg) was 1.1 h, the half-life ([1]; 720 mg) was 4.75 h and the AUC(0-t) ([1]; 960 mg) was 32400 ng·h/mL. The Cmax ([1]; 960 mg) was 5390 ng/mL, the Tmax ([1]; 960 mg) was 1.1 h and the half-life ([1]; 960 mg) was 5.07 h. For the same compound, the Renal toxicity (Beagle dogs) was “not identified”, the “Food effect on administration” value [2] was “may be taken with or without food” and the Route of elimination [2] was “mainly eliminated via the fecal route with minor renal excretion”. The “Most notable toxicity (renal toxicity) findings” value (rats; 3-month rat study) was “renal tubular degeneration/necrosis and increased kidney weight with biomarkers of renal tubular injury” and the “Recovery of renal toxicity” value (rats; after two months) was “Partial recovery”.
